Test system: CCI molded SD rats
Assay: Rat CCI-induced nociception sensitization model, mechanical pain threshold
Type: in vivo
Conditions: single oral administration; for mechanical pain threshold: FIGS. 2 and 3
Experimental: 3. Rat CCI-Induced Nociception Sensitization Model
SD rats of 160-180 g were purchased from Charles River (Beijing) with a license number of sCXK (Beijing)-2012-001 and a qualification number of 11400700254251. The surgery was performed to establish the CCI model as follows: the animals ware first anesthetized, then the left posterior sciatic nerve was exposed. A 2 mm long PE-90 catheter was applied to the middle site of the sciatic nerve. Finally the muscle and skin were sutured. Adaptation of the animal's left hind limb at 15g was carried out from day 10 after the surgery, three times a week.
The baseline testing was performed 17 days after surgery (starting from 2g at the time of testing, with an upper limit of 8g and a lower limit of 1g which is the −24h point), with a pain threshold of 1-4g as a grouping criterion. Grouping was done according to baseline test results, with 10 animals per group. The animals in the group were fasted but given water overnight. On the second day, mechanical pain values were tested at 2 h, 4 h and 6 h after oral/intragastric administration. The test started at 8 g, with an upper limit of 15g and a lower limit of 1g.
The data were processed according to equation (1) to calculate the PWT 50% value, where Xf is the log value of the final test fibers used in the test, k is a table value (Chaplan et al., 1994), and δ is the mean difference (here 0.224). PWT50%(g)=(10[Xf+kδ])/10000 [equation (1)]
The data were expressed in a form of mean±standard deviation (X±s) and were statistically analyzed using one-way ANOVA and Dunnett's t test (Graphpad prism 6.01).

NC[C@@]1(CC(=O)O)[C@@H]2CC[C@H]3C[C@@H]2[C@@H]1C3.O=S(=O)(O)c1ccccc1 [Compound 1]
effective dose: 3 mg/kg
mechanical pain threshold: significantly increased

CC(C)C[C@H](CN)CC(=O)O [pregabalin]
effective dose: 10 mg/kg
mechanical pain threshold: significantly increased

From patent publication US12226381B2, “Composition of fused tricyclic gamma-amino acid derivatives and the preparation thereof” (SICHUAN HAISCO PHARMACEUTICAL CO., LTD., priority 2018, dated 2025)
